In the first assay the target is T1, mTOR (Homo sapiens, UniProt P42345).
T1 construct: FLAG; made in house
T1 sequence (P42345 1362-2549): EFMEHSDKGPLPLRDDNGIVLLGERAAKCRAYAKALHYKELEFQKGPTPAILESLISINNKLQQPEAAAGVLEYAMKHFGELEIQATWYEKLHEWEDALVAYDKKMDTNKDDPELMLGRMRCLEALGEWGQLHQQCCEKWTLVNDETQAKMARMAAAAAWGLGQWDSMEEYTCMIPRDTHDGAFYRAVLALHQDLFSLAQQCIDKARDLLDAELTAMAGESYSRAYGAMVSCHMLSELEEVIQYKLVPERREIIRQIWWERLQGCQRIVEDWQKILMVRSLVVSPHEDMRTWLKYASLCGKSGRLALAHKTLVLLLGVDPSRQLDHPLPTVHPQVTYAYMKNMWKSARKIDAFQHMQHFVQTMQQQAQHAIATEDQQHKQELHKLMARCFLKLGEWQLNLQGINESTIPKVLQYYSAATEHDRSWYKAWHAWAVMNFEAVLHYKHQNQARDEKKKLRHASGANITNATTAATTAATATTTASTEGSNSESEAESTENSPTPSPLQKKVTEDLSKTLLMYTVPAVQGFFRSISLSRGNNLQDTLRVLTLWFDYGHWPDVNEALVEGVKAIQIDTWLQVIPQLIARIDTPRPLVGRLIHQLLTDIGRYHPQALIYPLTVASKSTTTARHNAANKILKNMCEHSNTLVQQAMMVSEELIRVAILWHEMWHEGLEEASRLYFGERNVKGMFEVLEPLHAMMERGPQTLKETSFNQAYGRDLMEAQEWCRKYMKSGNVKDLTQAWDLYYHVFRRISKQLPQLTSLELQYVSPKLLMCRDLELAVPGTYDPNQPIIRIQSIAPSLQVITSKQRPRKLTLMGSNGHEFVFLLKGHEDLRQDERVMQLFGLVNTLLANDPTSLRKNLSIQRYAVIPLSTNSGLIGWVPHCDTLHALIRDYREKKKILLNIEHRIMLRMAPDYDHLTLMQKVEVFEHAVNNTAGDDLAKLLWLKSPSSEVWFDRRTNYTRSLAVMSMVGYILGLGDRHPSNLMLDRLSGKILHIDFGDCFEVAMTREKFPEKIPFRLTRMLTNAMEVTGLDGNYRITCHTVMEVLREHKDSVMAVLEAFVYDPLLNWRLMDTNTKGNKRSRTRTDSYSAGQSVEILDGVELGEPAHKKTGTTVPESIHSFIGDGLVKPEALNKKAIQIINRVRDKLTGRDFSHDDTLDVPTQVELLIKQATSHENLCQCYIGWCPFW
Briefly: In Vitro mTOR Kinase Assay (Echo), Test (a)(ii). It counts as biochemical. The conditions noted are these: read-out: mTOR Kinase Assay (Echo). The method, boiled down:
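Compounds were acoustically dispensed, then incubated with FLAG-tagged mTOR (1362-2549) for 2 hours at room temperature. Reactions were quenched with EDTA plus detection antibody and AlphaScreen beads and left overnight in the dark before reading. Loss of phospho-T389 signal gave IC50 values.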
`C[C@H]1COCCN1c1cc(C2(S(=O)(=O)C3CC3)CC2)nc(-c2ccc(NC(=O)NCC(O)C(F)(F)F)cc2)n1` (stereo partly drawn) [Example 3q, 1-[4-[4-(1-cyclopropylsulfonylcyclopropyl)-6-[(3S)-3-methylmorpholin-4-yl]pyrimidin-2-yl]phenyl]-3-(3,3,3-trifluoro-2-hydroxypropyl)urea]: the IC50 amounted to 8.39 nM.
As to `CCS(=O)(=O)C1(c2cc(N3CCOC[C@@H]3C)nc(-c3ccc(NC(=O)Nc4cnn(C)c4)cc3)n2)CC1` [Example 11m, 1-[4-[4-(1-ethylsulfonylcyclopropyl)-6-[(3S)-3-methylmorpholin-4-yl]pyrimidin-2-yl]phenyl]-3-(1-methylpyrazol-4-yl)urea], the IC50 is 4.37 nM.
The same measure, in the same setting: as for `Cn1cc(NC(=O)Nc2ccc(-c3nc(N4CCOCC4)cc(C4(S(C)(=O)=O)CC4)n3)cc2)cn1` [Example 12i, 3-(1-methylpyrazol-4-yl)-1-[4-[4-(1-methylsulfonylcyclopropyl)-6-morpholin-4-ylpyrimidin-2-yl]phenyl]urea], the figure is 0.771 nM.

The assay is the same for the next values; noted with them: table of enzyme assay Test (a)(ii); read-out: Test (a)(ii) IC50.
Consider `CN(C(=O)C1(c2cc(N3CCOCC3)nc(-c3ccc(NC(=O)NC4CC4)cc3)n2)CC1)C1CC1` [Example 33c, N-cyclopropyl-1-[2-[4-(cyclopropylcarbamoylamino)phe-nyl]-6-morpholin-4-ylpyrimidin-4-yl]-N-methylcyclopropane-1-carboxamide], for which the IC50 was found to be 2.58 nM.
Regarding `CC[C@H]1COCCN1c1cc(C2(S(=O)(=O)c3ccccc3)CC2)nc(-c2ccc(NC(=O)NCCO)cc2)n1` [Example 74b, 1-[4-[4-[1-(benzenesulfonyl)cyclopropyl]-6-[(3S)-3-ethylmorpholin-4-yl]pyrimidin-2-yl]phenyl]-3-(2-hydroxyethyl)urea], the IC50 was found to be 2.44 nM.
Take `CCNC(=O)Nc1ccc(-c2nc(N3CCOC[C@@H]3CC)cc(C3(S(C)(=O)=O)CC3)n2)cc1` [Example 84e, 3-ethyl-1-[4-[4-[(3S)-3-ethylmorpholin-4-yl]-6-(1-methylsulfonylcyclopropyl)pyrimidin-2-yl]phenyl]urea]: the IC50 was determined as 8.18 nM.
Same read-out and setting: as for `C[C@H]1COCCN1c1cc(C2(S(=O)(=O)c3ccccc3)CC2)nc(-c2ccc(NC(=S)NC3CC3)cc2)n1` [Example 37v, 1-[4-[4-[1-(benzenesulfonyl)cyclopropyl]-6-[(3S)-3-methylmorpholin-4-yl]pyrimidin-2-yl]phenyl]-3-cyclopropylthiourea], the figure is 5.49 nM.
As to `CCS(=O)(=O)C1(c2cc(N3CCOC[C@@H]3C)nc(-c3ccc(NC(=O)NC)cc3)n2)CCC1` [Example 87c, 1-[4-[4-(1-ethylsulfonylcyclobutyl)-6-[(3S)-3-methylmorpholin-4-yl]pyrimidin-2-yl]phenyl]-3-methylurea], the IC50 was 7.75 nM.
The same measure, in the same setting: as for `C[C@H]1COCCN1c1cc(C2(S(=O)(=O)C(C)(C)C)CC2)nc(-c2ccc(NC(=O)NC3CC3)cc2)n1` [Example 18, 1-[4-[4-(1-tert-Butylsulfonylcyclopropyl)-6-[(3S)-3-methylmorpholin-4-yl]pyrimidin-2-yl]phenyl]-3-cyclopropylurea], the figure is 1.35 nM.
With `CCNC(=O)Nc1ccc(-c2nc(N3CCOC[C@@H]3C)cc(C3(S(=O)(=O)CCC(C)(C)O)CC3)n2)cc1` [Example 79f, 1-ethyl-3-[4-[4-[1-(3-hydroxy-3-methylbutyl)sulfonylcyclopropyl]-6-[(3S)-3-methylmorpholin-4-yl]pyrimidin-2-yl]phenyl]urea], the IC50 was 39.8 nM.
Turning to `CNC(=S)Nc1ccc(-c2nc(N3CCOC[C@@H]3C)cc(C3(S(=O)(=O)C4CC4)CC3)n2)cc1` [Example 37a, 1-[4-[4-(1-cyclopropylsulfonylcyclopropyl)-6-[(3S)-3-methylmorpholin-4-yl]pyrimidin-2-yl]phenyl]-3-methylthiourea], the IC50 was found to be 26 nM.
On the same count and under the same terms, as for `C[C@H]1COCCN1c1cc(C2(S(=O)(=O)C3CC3)CC2)nc(-c2ccc(NC(=O)NC3CC3)nc2)n1` [Example 14, 3-Cyclopropyl-1-[5-[4-(1-cyclopropylsulfonylcyclopropyl)-6-[(3S)-3-methylmorpholin-4-yl]pyrimidin-2-yl]pyridin-2-yl]urea], the figure is 46.5 nM.

Values taken from patent publication US20090018134A1, “Compounds - 945” (AstraZeneca AB, priority 2007, published 2009).
